In patent publication US20100144865A1, “COMPOUND FEED FOR AQUACULTURE” (priority 2007, published 2010):

Tested on: Atlantic salmon (Salmo salar L.) hepatocytes
Format: in vitro ADME
Experimental: The isolated hepatocytes were incubated with 35 nmol, 2.5 μCi of [1-^14C] 18:3 (n-3) as well as non radiolabeled 18:3 (n-3), final concentration 7 μM, in 5 ml of L 15 culture medium without FBS. The radio labeled FA was added to the medium as potassium salt bound to BSA. To each experimental flask (4 radiolabeled and 7 with non-radiolabeled 18:3 (n-3)), DMSO (7.4 μl/5 ml) with sesamin (final concentration 0.05 mM) was added and to each control flasks (4 radiolabeled and 7 with non-radiolabeled 18:3 (n-3)), only DMSO (7.4 μl/5 ml) was added, in another two flasks sesamin but no FA was added. The cells were incubated at 12° C. for 48 h. The radiolabeled experiment flasks with and without sesamin (4 each) were washed and harvested in PBS for further analysis of β-oxidation and radiolabeled lipid classes and radiolabeled cellular fatty acids. The cells in the two flasks with no FA substrate added were denaturated after the incubation and thereafter added radiolabeled substrate in order to be used as a negative control for the ASP measurements and HPLC analyses. In the non-labeled study, control and sesamin flask (4 each) were washed in PBS prior to isolation of mRNA according to the protocol RNeasy® Mini Kit for gene expression analysis and 3 flasks of each control and sesamin were washed and harvested in PSB for fatty acid and sesamin analysis.

Q: With `c1cc2c(cc1C1OCC3C(c4ccc5c(c4)OCO5)OCC13)OCO2` (stereo not drawn) [episesamin, 2,6-bis-(3,4-methylenedioxyphenyl)-trans-3,7-dioxabicyclo[3.3.0]octane] as the molecule, how does the “bioavailability in hepatocytes compared with sesamin” value read?
A: higher
